Assay results from patent US20260306434A1, “VERY LONG CHAIN FATTY ACIDS FOR USE IN MINERALIZATION” (Epax Norway AS, priority 2023, published 2026).
Values belong to the molecule of their own block, whether it stands above or below them.

Assays:
[1] = system: hFOB 1.19 human foetal osteoblasts; test: Fatty acid composition of hFOB cells (Ex. 4); assay type: cell-based; details: 2 μM; 7 days
Protocol: Total lipids were extracted from homogenised tissue or sonicated extracts of cells (for Ex. 4) following the method previously described by Folch et al., For both skin tissue and whole-body analyses, pooled samples from each tank (n=10 per tank, n=30 per diet group) were analysed for lipid composition. For cells, three individual cell culture flasks per treatment group were analysed. The fatty acid composition was analysed using the method described by Mason and Waller.
Methyl esters were separated and analysed in a GC (Hewlett Packard 6890; HP) with a split injector using an SGE BPX70 capillary column (length, 60 m; internal diameter, 0.25 mm; and film thickness, 0.25 um; SGE Analytical Science) flame ionsation detector, and HP chem Station software. Helium was used as the carrier gas, and both the injector and detector temperatures were 280° C. The oven temperature started at 50° C. for 1.2 min and then increased […] to 170° C. at a rate of 4° C./min, followed by 200° C. at a rate of 0.5° C./min, and finally 280° C. at a rate of 10° C./min. The individual fatty acid peaks were identified by comparing the retention times with validated standards; GLC reference 463 and 85 (Nu-chek Prep, Elysian, MN). The absolute amount of fatty acid per gram of tissue or cells was calculated using 23:0 methyl ester as an internal standard (IS). Unidentified peaks were not included in the total fatty acid calculation.
The VLC-PUFA composition of cells and whole-body extracts was analysed using a Scion TQ 8300 GC-MS/MS with a split/splitless injector (splitless 1 min) with a Restek Rxi-5 ms capillary column (length, 30 m; internal diameter, 0.25 mm; and film thickness, […]). Hydrogen was used as the carrier gas, with split-injection and detector temperatures of 250° C. and 270° C., respectively. The oven temperature started at 90° C. for 1.5 min and was ramped up to 220° C. at a rate of 30° C./min, then 275° C. at a rate of 1.21° C./min, and finally 310° C. at a rate of 6.5° C./min. The instrument was run in MRM mode with 79.1-77.1 and 79-55.1 as transitions for VLC PUFAs and 143.1-55.1 for C23:0. The response factor for DHA (relative to C23:0) was calculated using standard solutions of known concentrations of DHA and C23:0. As no standards for VLC fatty acids were available for the VLC-PUFAs, the same response factor as for DHA was assumed and used to calculate concentrations of VLC-PUFAs.
A human foetal osteoblast cell line (hFOB 1.19, ATCC, CRL-11372) was used in the experiments. Cells were cultured according to the manufacturer's instructions. Basal medium comprised a 1:1 mixture of Ham's F12 Medium Dulbecco's Modified Eagle's Medium with 2.5 mM L-glutamine (without phenol red) (Sigma-Aldrich, Darmstadt, Germany). Complete growth medium was prepared using 0.3 mg/mL G418 (Sigma-Aldrich, Darmstadt, Germany) supplemented with 10% foetal bovine serum (T7524, Sigma-Aldrich, Darmstadt, Germany). Cells were incubated at 34° C., with 5% C02 (In-Vitro Cell NU-8600E, NUAIRE, Minnesota, U.S.) and sub-cultured at approximately 80% confluency at a ratio of 1:4. Growth medium was renewed every 2-3 days. Cells cultured for differentiation were supplemented with osteogenic factors, ascorbic acid (100 μg/mL; A8960, Sigma-Aldrich, Darmstadt, Germany) and β-glycerophosphate (10 mM; G9422, Sigma-Aldrich, Darmstadt, Germany). Once the cells reached confluency, the temperature was increased to 37° C. to stop proliferation and induce differentiation. The osteogenic media was renewed every 2-3 days.
Fatty acids were added to the growth media in the form of their sodium salts bound to bovine serum albumin (BSA, Sigma-Aldrich, Darmstadt, Germany; 2.7:1 molar ratio). The pH was adjusted to 7 using NH4OH. n-3 VLC-PUFA (the VLC-PUFA concentrate of Table 3.1, right column) and DHA (Sigma-Aldrich, Darmstadt, Germany) concentrates were prepared as 1 and 8 mM stocks, respectively, and were added to the media at concentrations of 1 and 2 μM. […]

[2] = system: primary Atlantic salmon keratocytes; test: Cell migration of primary Atlantic salmon keratocytes from scales (Ex. 2); assay type: cell-based; details: 25 ng/mL; 24 h; vs control (P=0.0145)
Protocol: In these cell culture experiments fatty acids were added to growth media in the form of their sodium salts bound to bovine serum albumin (BSA; 2.7:1 molar ratio). The pH was adjusted to 7 using NH4OH. DHA was purchased from Sigma (Sigma Aldrich, Darmstadt, Germany). The n-3 VLCPUFA 26:6 n-3 and VLC-Conc2 (Table 1.1) were both prepared as 1-mM stock solutions and DHA was prepared as an 8-mM stock solution. All fatty acid solutions were stored at −80° C.
Growth medium (GM) was prepared as L-15 (11544436, Fischer Scientific) supplemented with 5% FBS (F2442, Sigma-Aldrich), 1% anti/anti (A5955, Sigma-Aldrich; 15240062 Fischer Scientific), and 1% HEPES (H0887, Sigma-Aldrich). The test substrates added were either 25 ng/mL fibroblast growth factor (FGF) (106096-93-9, Sigma-Aldrich), 10 μM VLCPUFA (26:6 n-3), or 20 μM VLCPUFA (26:6 n-3). Controls were left untreated. […]
The day after isolation, all wells were inspected under a microscope to determine the migration potential of the scales. All scales with migration were counted to determine the immediate effect of the VLCPUFA on cell migration. […] The number of scales with cell migration was counted and divided by the number of attached scales to calculate the percentage of scales with cell migration, as attachment is a prerequisite for cell migration. […]
For histology, five fish from each tank, giving a total of 15 fish per treatment, were analysed. […]

14:0, mean [1]: 38.3 μg/g sample
16:0, mean [1]: 648.5 μg/g sample
16:2 n-6, mean [1]: 52.5 μg/g sample
17:0, mean [1]: 12.5 μg/g sample
18:0, mean [1]: 315.8 μg/g sample
18:1 n-7, mean [1]: 135.0 μg/g sample
18:1 n-9, mean [1]: 554.6 μg/g sample
18:2 n-6, mean [1]: 40.6 μg/g sample
18:3 n-6, mean [1]: 11.5 μg/g sample
20:0, mean [1]: 10.1 μg/g sample
20:1 n-9, mean [1]: 16.2 μg/g sample
20:1 n-11, mean [1]: 7.1 μg/g sample
20:2 n-6, mean [1]: 18.8 μg/g sample
20:3 n-6, mean [1]: 20.6 μg/g sample
20:4 n-3, mean [1]: 8.8 μg/g sample
20:4 n-6, mean [1]: 106.7 μg/g sample
20:5 n-3, mean [1]: 19.3ab μg/g sample
22:0, mean [1]: 7.3 μg/g sample
22:4 n-6, mean [1]: 13.7 μg/g sample
22:5 n-3, mean [1]: 26.2 μg/g sample
24:1 n-9, mean [1]: 3.9 μg/g sample
24:5 n-3, mean [1]: 76.5 μg/g sample
24:6 n-3, mean [1]: 56.5 μg/g sample
26:5 n-3, mean [1]: 1.7ab μg/g sample
26:6 n-3, mean [1]: 3.3ab μg/g sample
28:8 n-3, mean [1]: 0.0a μg/g sample
SUM EPA/DHA, mean [1]: 115.6b μg/g sample
SUM FA, mean [1]: 2670.3 μg/g sample
Sum of MUFAs, mean [1]: 871.5 μg/g sample
Sum of SFAs, mean [1]: 1045.0 μg/g sample
Sum of n-3 PUFAs, mean [1]: 164.0ab μg/g sample
Sum of n-6 PUFAs, mean [1]: 226.2 μg/g sample
Sum others, mean [1]: 168.3 μg/g sample
Molecule: CC/C=C\C/C=C\C/C=C\C/C=C\C/C=C\C/C=C\CCC(=O)O [DHA, docosahexaenoic acid]

Molecule: fibroblast growth factor [FGF]
scales with cell migration [2]: significant difference
